Experimental data taken from PubChem BioAssay AID248 (DTP/NCI, 2004).
Toxic doses and inconclusive results are not listed. Cut-off read from the data, not from the text of the source: active = T/C of 150% or more; inactive = T/C below 125%.

Tested on: L1210 leukemia ip in BDF1 mice, survival T/C
Experiment: NCI In Vivo Anticancer Drug Screen. Data for tumor model L1210 Leukemia (intraperitoneal) in B6D2F1 (BDF1) mice
Conditions: endpoint: mean survival time, higher = longer survival
Outline: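 Transplanted-tumor mice were given test agent; controls received vehicle only. Survival readings from the two groups were divided (treated over control).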

[1] = dose: 100.0 mg/kg/injection, schedule: Q04DX002 (ip), vehicle: Klucel (hydroxypropylcellulose) (HPC)
[2] = dose: 200.0 mg/kg/injection, schedule: Q04DX002 (ip), vehicle: Klucel (hydroxypropylcellulose) (HPC)
[3] = dose: 400.0 mg/kg/injection, schedule: Q04DX002 (ip), vehicle: Klucel (hydroxypropylcellulose) (HPC)
[4] = dose: 100.0 mg/kg/injection, schedule: Q01DX001 (ip), vehicle: carboxymethylcellulose (CMC)
[5] = dose: 200.0 mg/kg/injection, schedule: Q01DX001 (ip), vehicle: carboxymethylcellulose (CMC)
[6] = dose: 400.0 mg/kg/injection, schedule: Q01DX001 (ip), vehicle: carboxymethylcellulose (CMC)
[7] = dose: 100.0 mg/kg/injection, schedule: Q01DX009 (ip), vehicle: saline with Tween-80
[8] = dose: 100.0 mg/kg/injection, schedule: Q04DX003 (ip), vehicle: saline with Tween-80
[9] = dose: 200.0 mg/kg/injection, schedule: Q01DX009 (ip), vehicle: saline with Tween-80
[10] = dose: 200.0 mg/kg/injection, schedule: Q04DX003 (ip), vehicle: saline with Tween-80
[11] = dose: 100.0 mg/kg/injection, schedule: Q04DX003 (ip), vehicle: Klucel (hydroxypropylcellulose) (HPC)
[12] = dose: 200.0 mg/kg/injection, schedule: Q04DX003 (ip), vehicle: Klucel (hydroxypropylcellulose) (HPC)
[13] = dose: 100.0 mg/kg/injection, schedule: Q01DX001 (ip), vehicle: saline
[14] = dose: 200.0 mg/kg/injection, schedule: Q01DX001 (ip), vehicle: saline
[15] = dose: 400.0 mg/kg/injection, schedule: Q01DX001 (ip), vehicle: saline
[16] = dose: 150.0 mg/kg/injection, schedule: Q04DX003 (ip), vehicle: saline with Tween-80
[17] = dose: 300.0 mg/kg/injection, schedule: Q04DX003 (ip), vehicle: saline with Tween-80
[18] = dose: 400.0 mg/kg/injection, schedule: Q01DX009 (ip), vehicle: saline with Tween-80
[19] = dose: 100.0 mg/kg/injection, schedule: Q01DX009 (ip), vehicle: Klucel (hydroxypropylcellulose) (HPC)
[20] = dose: 200.0 mg/kg/injection, schedule: Q01DX009 (ip), vehicle: Klucel (hydroxypropylcellulose) (HPC)
[21] = dose: 400.0 mg/kg/injection, schedule: Q01DX009 (ip), vehicle: Klucel (hydroxypropylcellulose) (HPC)
[22] = dose: 400.0 mg/kg/injection, schedule: Q04DX003 (ip), vehicle: Klucel (hydroxypropylcellulose) (HPC)

Measured: T/C

CC/C(N)=C\C(=O)c1ccccc1
inactive: [1] 102 % of control | [2] 105 % of control | [3] 98 % of control

CC(=O)Oc1ccc(-c2ccc(Cl)cc2)cc1
inactive: [4] 103 % of control | [5] 109 % of control | [6] 97 % of control

NNS(=O)(=O)CCCCCCCCCCC(=O)O
inactive: dose: 50.0 mg/kg/injection, schedule: Q01DX009 (ip), vehicle: saline with Tween-80 99 % of control | [7] 96 % of control | [8] 92 % of control | [9] 91 % of control | [10] 90 % of control

N#Cc1sc2ccccc2c1O
inactive: dose: 50.0 mg/kg/injection, schedule: Q04DX003 (ip), vehicle: Klucel (hydroxypropylcellulose) (HPC) 106 % of control | [11] 97 % of control | [12] 95 % of control

CCOC(=O)C(=CNc1ccc(OCCCOc2ccccc2)cc1)C(=O)OCC
inactive: dose: 100.0 mg/kg/injection, schedule: Q01DX001 (ip), vehicle: gum acacia 98 % of control | dose: 200.0 mg/kg/injection, schedule: Q01DX001 (ip), vehicle: gum acacia 90 % of control | dose: 400.0 mg/kg/injection, schedule: Q01DX001 (ip), vehicle: gum acacia 102 % of control

O=C1c2ccccc2CCC1(Br)C(Br)c1ccccc1 (configuration not stated)
inactive: dose: 100.0 mg/kg/injection, schedule: Q04DX003 (ip), vehicle: acetone 96 % of control | dose: 200.0 mg/kg/injection, schedule: Q04DX003 (ip), vehicle: acetone 101 % of control | dose: 400.0 mg/kg/injection, schedule: Q04DX003 (ip), vehicle: acetone 92 % of control

NC(Cc1ccc(O)c(O)c1)C(=O)O (configuration not stated)
inactive: [13] 93 % of control | [14] 95 % of control | [15] 97 % of control

CCC(CO)NC(=O)/C=C/c1cc(OC)ccc1OC (configuration not stated)
inactive: [16] 111 % of control | [17] 102 % of control | dose: 600.0 mg/kg/injection, schedule: Q04DX003 (ip), vehicle: saline with Tween-80 109 % of control

CC(NC(=O)C(CO)NC(=O)c1cnc2ccccc2n1)C(=O)OC(C)(C)C (configuration not stated)
inactive: [13] 102 % of control | [14] 102 % of control | [15] 115 % of control

CCOC(=O)C1C(=O)C(C(=O)Nc2ccccc2)C(=O)C(C(=O)OCC)C1c1ccc(OC)c(OC)c1OC (configuration not stated)
inactive: dose: 50.0 mg/kg/injection, schedule: Q01DX001 (ip), vehicle: saline with Tween-80 96 % of control | dose: 100.0 mg/kg/injection, schedule: Q01DX001 (ip), vehicle: saline with Tween-80 100 % of control | dose: 200.0 mg/kg/injection, schedule: Q01DX001 (ip), vehicle: saline with Tween-80 94 % of control

O=C(OCCCCCCl)c1ccccc1
inactive: [7] 100 % of control | [8] 106 % of control | [9] 104 % of control | [10] 97 % of control | [18] 98 % of control | dose: 400.0 mg/kg/injection, schedule: Q04DX003 (ip), vehicle: saline with Tween-80 95 % of control

N#CC(C#N)=C1Cc2ccccc2C1
inactive: dose: 50.0 mg/kg/injection, schedule: Q04DX003 (ip), vehicle: saline with Tween-80 109 % of control | [8] 109 % of control

O=C(O)c1c(O)c2cc(Br)ccc2oc1=O
inactive: [13] 98 % of control | [14] 98 % of control | [15] 102 % of control

CCCN=Cc1cnc(C#N)c(N)n1
inactive: [1] 97 % of control | [2] 94 % of control | [3] 97 % of control

C=CC(O)c1ccccc1 (configuration not stated)
inactive: dose: 75.0 mg/kg/injection, schedule: Q01DX009 (ip), vehicle: saline with Tween-80 90 % of control | dose: 75.0 mg/kg/injection, schedule: Q04DX003 (ip), vehicle: saline with Tween-80 89 % of control | dose: 150.0 mg/kg/injection, schedule: Q01DX009 (ip), vehicle: saline with Tween-80 87 % of control | [16] 109 % of control | dose: 300.0 mg/kg/injection, schedule: Q01DX009 (ip), vehicle: saline with Tween-80 88 % of control | [17] 105 % of control

CCCCCCCCCCCCCCC(=O)O
inactive: dose: 100.0 mg/kg/injection, schedule: Q01DX001 (ip), vehicle: Klucel (hydroxypropylcellulose) (HPC) 108 % of control | dose: 200.0 mg/kg/injection, schedule: Q01DX001 (ip), vehicle: Klucel (hydroxypropylcellulose) (HPC) 93 % of control | dose: 400.0 mg/kg/injection, schedule: Q01DX001 (ip), vehicle: Klucel (hydroxypropylcellulose) (HPC) 93 % of control

Clc1c(Cl)c([O][Sn]([c]2ccccc2)([c]2ccccc2)[c]2ccccc2)c(Cl)c(Cl)c1[O][Sn]([c]1ccccc1)([c]1ccccc1)[c]1ccccc1
inactive: dose: 3.12 mg/kg/injection, schedule: Q01DX009 (ip), vehicle: Klucel (hydroxypropylcellulose) (HPC) 108 % of control | dose: 6.25 mg/kg/injection, schedule: Q01DX009 (ip), vehicle: Klucel (hydroxypropylcellulose) (HPC) 91 % of control | dose: 25.0 mg/kg/injection, schedule: Q01DX009 (ip), vehicle: Klucel (hydroxypropylcellulose) (HPC) 90 % of control

FC(F)(F)c1cccc(NC(=S)Nc2ccccc2S)c1
inactive: [7] 103 % of control | dose: 100.0 mg/kg/injection, schedule: Q04DX002 (ip), vehicle: saline with Tween-80 93 % of control | [9] 98 % of control | dose: 200.0 mg/kg/injection, schedule: Q04DX002 (ip), vehicle: saline with Tween-80 96 % of control | [18] 124 % of control | dose: 400.0 mg/kg/injection, schedule: Q04DX002 (ip), vehicle: saline with Tween-80 101 % of control

COC(=O)CCCCn1ccc(=O)[nH]c1=O
inactive: [1] 100 % of control | [2] 104 % of control | [3] 100 % of control

NC1CC2(CCC1=O)c1ccccc1-c1ccccc12 (configuration not stated)
inactive: [13] 101 % of control | [15] 104 % of control

NC(CCl)=NC1CCCC1
inactive: dose: 25.0 mg/kg/injection, schedule: Q04DX002 (ip), vehicle: saline 109 % of control | dose: 50.0 mg/kg/injection, schedule: Q04DX002 (ip), vehicle: saline 102 % of control | dose: 100.0 mg/kg/injection, schedule: Q04DX002 (ip), vehicle: saline 121 % of control

O=C1OC(c2ccccc2)(c2ccccc2)c2ccccc21
inactive: [19] 93 % of control | [11] 107 % of control | [20] 101 % of control | [12] 102 % of control | [21] 88 % of control | [22] 100 % of control

CCOc1ccc(Br)cc1C1N(Cc2ccccc2OC)CCCN1Cc1ccccc1OC
inactive: [4] 100 % of control | [5] 92 % of control | [6] 94 % of control

CCC(=O)OC1C(C)OC(OC2C(C)OC(O[C@H]3[C@@H](CC=O)C[C@@H](C)[C@@H](O)/C=C/C=C/C[C@@H](C)OC(=O)C[C@@H](OC(=O)CC)[C@@H]3OC)C(O)C2N(C)C)CC1(C)O (some centres not stated)
inactive: [19] 96 % of control | [11] 104 % of control | [20] 93 % of control | [12] 95 % of control | [21] 98 % of control | [22] 91 % of control
